Measurements as given in article PMC9837035 (Nature Communications, 2023).
Several values for one entry are separate records, joined by “and”; a condition that tells them apart may be missing. Equal values may be shown once. Read-outs that look alike come from different tables or passages of the source.

Assays:
[1] = tested on: β- and γ-globin mRNAs in CD34+-derived cells; experiment: RT-qPCR of β- and γ-globin in CD34+-derived cells; format: cell-based, human
Experimental: (§1) HUDEP-2 cells and HiDEP-1 cells were grown in Stemline II Hematopoietic Stem Cell Expansion Medium (Sigma) supplemented with 50 ng/mL recombinant stem cell factor (SCF; R&D systems), 3 IU/mL recombinant erythropoietin (EPO; Kyowa Kirin), 1 μM dexamethasone (Dex; Sigma), and 1 μg/mL doxycycline (Sigma). A total of 1 × 10^5 human CD34^+ progenitor cells derived from bone marrow or peripheral blood (Lonza) were cultured on 35-mm dishes (BD Falcon) in StemSpan SFEMII medium with 50 ng/mL SCF, 5 IU/mL EPO, and 10 ng /mL interleukin 3 (IL-3; R&D systems). The medium was changed on day 4 to SCF, EPO, and 1 μM Dex, and the cells were transferred to 60-mm dishes (BD Falcon). Seven days after the onset of differentiation, cells were counted and 1 × 10^6 cells were re-plated on 100-mm dishes (BD Falcon) with SCF, EPO, and Dex. The rat myoblast cell line H9c2, HEK293T, and PLAT-E cells were maintained in Dulbecco’s modified Eagle’s medium (Thermo Fisher Scientific) supplemented with 10% heat-inactivated fetal bovine serum (FBS) and penicillin/streptomycin. All cells were cultured at 37 °C under 5% CO2.
(§2) Total cellular RNA was prepared using the Tissue Total RNA Mini Kit (FAVORGEN), and cDNA was synthesized using ReverTra Ace Master Mix (TOYOBO). Expression of target genes was analyzed using THUNDERBIRD SYBR qPCR Mix (TOYOBO) on a CFX Connect Real Time System (Bio-Rad). The qPCR data were acquired on CFX Maestro (Bio-Rad). Primers are listed in Supplementary Table 10. GAPDH was used as a reference. Primers were purchased from INTEGRATED DNA TECHNOLOGIES or FASMAC.

[2] = tested on: HbF in CD34+-derived cells; experiment: Flow cytometry of HbF-expressing CD34+-derived cells; format: cell-based, human
Experimental: For the analysis of HbF expression, HUDEP-2 cells or cells differentiated from human CD34 + progenitor cells were fixed in 0.05% glutaraldehyde for 10 min, then washed two times with PBS containing 2% FBS (PBS/2% FBS) and permeabilized with 0.1% Triton X-100 (prepared in PBS/2% FBS; Life Technologies) for 5 min. After washing with PBS/2% FBS two times, cells were stained with allophycocyanin (APC)-conjugated HbF antibody (1:1, Invitrogen, MHFH05). One million cells were incubated with the HbF–APC antibody for 30 min in the dark at 4 °C. Cells were washed twice with PBS/2% FBS, then suspended in 0.2 ml PBS/2% FBS and analyzed using a FACSCalibur (Becton Dickinson). To assess erythroid differentiation, hematopoietic cells differentiated from human CD34 cells were stained with FITC-conjugated CD45 antibody (1:1, Becton Dickinson, 555482) and APC-conjugated glycophorin A antibody (1:20, Becton Dickinson, 551336). Stained cells were suspended in 0.2 ml PBS/2% FBS containing 1 μg/ml propidium iodide (Sigma) and analyzed by FACSCalibur. The results of flow cytometer were further analyzed by FlowJo software (Becton Dickinson).

CD34+ cells = experiment: Cell viability of CD34+ cells by cell counting; format: cell-based, human; conditions: for cell viability: CD34+ cells, 10 days
Experimental: as §1

BGLT3 RNA in CD34+ cells = experiment: RT-qPCR of BGLT3 in CD34+ cells; format: cell-based, human; conditions: for BGLT3 expression in CD34+ cells treated with hydroxyurea: relative to DMSO = 1, replicate values; for BGLT3 expression: primary human CD34+ cells
Experimental: as §1, §2

DNMT3b/3L = target: T1, DNMT3b/3L (Homo sapiens, UniProt Q9UBC3); experiment: Radioisotope-based methyltransferase assay (selectivity); format: biochemical
T1 construct: purchased Reaction Biology

SMYD1 = target: T2, SMYD1 (Homo sapiens, UniProt Q8NB12); experiment: as above; format: biochemical
T2 construct: purchased Reaction Biology
T2 sequence (Q8NB12 1-490): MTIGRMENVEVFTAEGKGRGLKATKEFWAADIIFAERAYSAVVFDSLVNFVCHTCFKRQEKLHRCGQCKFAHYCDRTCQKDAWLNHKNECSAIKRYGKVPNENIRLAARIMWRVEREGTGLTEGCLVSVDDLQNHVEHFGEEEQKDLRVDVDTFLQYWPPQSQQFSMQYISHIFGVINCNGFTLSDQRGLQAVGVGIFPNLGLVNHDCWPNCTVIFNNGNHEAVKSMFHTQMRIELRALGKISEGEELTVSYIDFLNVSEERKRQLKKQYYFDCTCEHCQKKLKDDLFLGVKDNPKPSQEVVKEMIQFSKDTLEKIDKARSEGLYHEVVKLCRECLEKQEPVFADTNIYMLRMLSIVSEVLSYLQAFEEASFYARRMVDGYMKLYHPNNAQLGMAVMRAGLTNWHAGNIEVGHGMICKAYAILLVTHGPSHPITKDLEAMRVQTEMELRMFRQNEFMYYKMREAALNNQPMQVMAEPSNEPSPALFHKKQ

SUV39H2 = target: T3, SUV39H2 (Homo sapiens, UniProt Q9H5I1); experiment: as above; format: biochemical
T3 construct: purchased Reaction Biology

SET7/9 = target: T4, SET7/9 (Homo sapiens, UniProt Q8WTS6); experiment: as above; format: biochemical
T4 construct: purchased Reaction Biology
T4 sequence (Q8WTS6 1-366): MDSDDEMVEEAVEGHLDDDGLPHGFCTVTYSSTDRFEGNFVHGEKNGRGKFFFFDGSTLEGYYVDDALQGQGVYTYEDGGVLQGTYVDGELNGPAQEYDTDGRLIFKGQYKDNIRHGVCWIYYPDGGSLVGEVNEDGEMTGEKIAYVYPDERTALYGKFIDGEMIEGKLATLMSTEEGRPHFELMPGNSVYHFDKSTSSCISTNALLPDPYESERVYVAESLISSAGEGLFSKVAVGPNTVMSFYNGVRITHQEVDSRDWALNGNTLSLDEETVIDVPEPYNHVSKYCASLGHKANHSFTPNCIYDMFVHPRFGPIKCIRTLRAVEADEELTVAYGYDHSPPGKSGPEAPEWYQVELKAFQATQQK

DNMT3a = target: T5, DNMT3a (Homo sapiens, UniProt Q9Y6K1); experiment: as above; format: biochemical
T5 construct: purchased Reaction Biology

NSD1 = target: T6, NSD1 (Homo sapiens, UniProt Q96L73); experiment: as above; format: biochemical
T6 construct: purchased Reaction Biology

[3] = CD34+-derived cells, day 10, 10 μM

T3 sequence (Q9H5I1 whole entry): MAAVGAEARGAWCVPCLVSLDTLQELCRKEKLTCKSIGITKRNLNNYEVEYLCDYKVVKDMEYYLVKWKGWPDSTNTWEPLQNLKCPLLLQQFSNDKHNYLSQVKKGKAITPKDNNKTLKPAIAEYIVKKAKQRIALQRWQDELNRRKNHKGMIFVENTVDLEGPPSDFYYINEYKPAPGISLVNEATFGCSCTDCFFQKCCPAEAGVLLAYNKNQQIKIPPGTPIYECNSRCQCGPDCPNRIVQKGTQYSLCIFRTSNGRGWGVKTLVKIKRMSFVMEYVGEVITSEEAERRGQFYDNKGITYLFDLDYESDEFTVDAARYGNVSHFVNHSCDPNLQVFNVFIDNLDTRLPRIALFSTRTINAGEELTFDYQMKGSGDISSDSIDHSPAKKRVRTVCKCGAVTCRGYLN
T6 sequence (Q96L73 whole entry): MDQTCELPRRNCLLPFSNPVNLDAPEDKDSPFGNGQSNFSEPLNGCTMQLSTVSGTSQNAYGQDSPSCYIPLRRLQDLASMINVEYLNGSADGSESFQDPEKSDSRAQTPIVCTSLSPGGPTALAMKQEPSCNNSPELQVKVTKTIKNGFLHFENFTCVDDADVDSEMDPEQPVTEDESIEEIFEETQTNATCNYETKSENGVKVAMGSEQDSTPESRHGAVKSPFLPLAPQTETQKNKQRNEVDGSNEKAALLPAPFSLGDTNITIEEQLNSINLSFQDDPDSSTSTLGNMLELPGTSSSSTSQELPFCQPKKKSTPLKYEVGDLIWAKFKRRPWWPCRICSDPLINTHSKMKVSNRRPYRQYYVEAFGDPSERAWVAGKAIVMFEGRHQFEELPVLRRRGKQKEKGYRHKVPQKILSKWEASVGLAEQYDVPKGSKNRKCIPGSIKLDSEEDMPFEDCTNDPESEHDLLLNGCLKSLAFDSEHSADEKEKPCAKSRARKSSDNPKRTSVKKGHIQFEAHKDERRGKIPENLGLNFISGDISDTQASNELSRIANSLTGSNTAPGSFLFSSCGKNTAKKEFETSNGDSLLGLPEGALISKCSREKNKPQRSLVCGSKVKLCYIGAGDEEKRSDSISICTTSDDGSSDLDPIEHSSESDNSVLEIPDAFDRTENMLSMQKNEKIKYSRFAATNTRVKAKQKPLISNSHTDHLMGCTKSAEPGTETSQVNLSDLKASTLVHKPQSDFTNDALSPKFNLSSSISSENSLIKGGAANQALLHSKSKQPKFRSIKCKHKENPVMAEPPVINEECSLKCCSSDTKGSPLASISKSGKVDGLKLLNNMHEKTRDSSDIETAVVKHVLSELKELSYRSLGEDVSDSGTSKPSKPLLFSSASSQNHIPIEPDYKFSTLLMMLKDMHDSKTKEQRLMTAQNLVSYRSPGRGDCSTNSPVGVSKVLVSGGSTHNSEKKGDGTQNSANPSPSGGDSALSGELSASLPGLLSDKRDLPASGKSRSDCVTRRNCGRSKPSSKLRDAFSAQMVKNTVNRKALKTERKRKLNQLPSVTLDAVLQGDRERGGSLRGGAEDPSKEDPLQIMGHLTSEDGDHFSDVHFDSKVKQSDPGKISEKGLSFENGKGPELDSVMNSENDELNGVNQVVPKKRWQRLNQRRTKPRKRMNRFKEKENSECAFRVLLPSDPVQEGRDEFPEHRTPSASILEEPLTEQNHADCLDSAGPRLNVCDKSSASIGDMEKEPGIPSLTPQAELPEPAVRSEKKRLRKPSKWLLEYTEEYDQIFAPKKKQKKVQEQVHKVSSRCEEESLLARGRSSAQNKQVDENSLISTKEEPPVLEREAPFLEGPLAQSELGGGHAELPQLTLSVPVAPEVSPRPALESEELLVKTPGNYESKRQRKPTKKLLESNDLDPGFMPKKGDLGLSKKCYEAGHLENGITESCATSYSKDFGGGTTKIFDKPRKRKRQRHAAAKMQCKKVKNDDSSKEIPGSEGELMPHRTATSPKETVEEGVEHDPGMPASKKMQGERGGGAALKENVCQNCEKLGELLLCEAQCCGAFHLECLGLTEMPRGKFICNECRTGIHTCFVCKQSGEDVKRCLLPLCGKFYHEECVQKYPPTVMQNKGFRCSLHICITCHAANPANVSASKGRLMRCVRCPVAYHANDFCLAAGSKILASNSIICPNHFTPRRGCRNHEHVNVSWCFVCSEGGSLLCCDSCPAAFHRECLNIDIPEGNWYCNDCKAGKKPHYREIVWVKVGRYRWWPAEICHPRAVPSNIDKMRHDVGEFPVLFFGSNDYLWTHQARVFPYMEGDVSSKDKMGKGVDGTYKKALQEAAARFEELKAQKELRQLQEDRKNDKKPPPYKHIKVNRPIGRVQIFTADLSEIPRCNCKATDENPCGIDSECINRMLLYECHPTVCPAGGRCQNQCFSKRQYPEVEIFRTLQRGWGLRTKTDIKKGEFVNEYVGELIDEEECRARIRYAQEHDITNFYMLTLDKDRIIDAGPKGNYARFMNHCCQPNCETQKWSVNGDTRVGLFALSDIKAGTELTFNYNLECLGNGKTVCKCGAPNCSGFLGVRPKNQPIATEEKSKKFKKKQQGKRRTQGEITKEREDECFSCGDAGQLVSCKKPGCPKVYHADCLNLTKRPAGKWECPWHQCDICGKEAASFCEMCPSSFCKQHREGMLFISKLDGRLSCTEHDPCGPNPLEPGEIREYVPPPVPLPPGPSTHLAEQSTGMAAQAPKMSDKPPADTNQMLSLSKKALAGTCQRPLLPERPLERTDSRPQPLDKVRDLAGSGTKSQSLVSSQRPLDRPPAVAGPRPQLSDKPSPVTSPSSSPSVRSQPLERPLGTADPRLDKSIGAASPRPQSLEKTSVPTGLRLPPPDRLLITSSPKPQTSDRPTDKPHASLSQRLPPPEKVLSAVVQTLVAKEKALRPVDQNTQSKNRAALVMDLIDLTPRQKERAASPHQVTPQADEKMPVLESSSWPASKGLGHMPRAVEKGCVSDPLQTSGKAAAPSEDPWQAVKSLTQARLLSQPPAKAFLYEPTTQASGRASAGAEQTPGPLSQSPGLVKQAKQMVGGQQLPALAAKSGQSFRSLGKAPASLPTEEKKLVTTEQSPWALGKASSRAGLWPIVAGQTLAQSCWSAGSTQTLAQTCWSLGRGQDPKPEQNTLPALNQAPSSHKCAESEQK
T5 sequence (Q9Y6K1 whole entry, looked up): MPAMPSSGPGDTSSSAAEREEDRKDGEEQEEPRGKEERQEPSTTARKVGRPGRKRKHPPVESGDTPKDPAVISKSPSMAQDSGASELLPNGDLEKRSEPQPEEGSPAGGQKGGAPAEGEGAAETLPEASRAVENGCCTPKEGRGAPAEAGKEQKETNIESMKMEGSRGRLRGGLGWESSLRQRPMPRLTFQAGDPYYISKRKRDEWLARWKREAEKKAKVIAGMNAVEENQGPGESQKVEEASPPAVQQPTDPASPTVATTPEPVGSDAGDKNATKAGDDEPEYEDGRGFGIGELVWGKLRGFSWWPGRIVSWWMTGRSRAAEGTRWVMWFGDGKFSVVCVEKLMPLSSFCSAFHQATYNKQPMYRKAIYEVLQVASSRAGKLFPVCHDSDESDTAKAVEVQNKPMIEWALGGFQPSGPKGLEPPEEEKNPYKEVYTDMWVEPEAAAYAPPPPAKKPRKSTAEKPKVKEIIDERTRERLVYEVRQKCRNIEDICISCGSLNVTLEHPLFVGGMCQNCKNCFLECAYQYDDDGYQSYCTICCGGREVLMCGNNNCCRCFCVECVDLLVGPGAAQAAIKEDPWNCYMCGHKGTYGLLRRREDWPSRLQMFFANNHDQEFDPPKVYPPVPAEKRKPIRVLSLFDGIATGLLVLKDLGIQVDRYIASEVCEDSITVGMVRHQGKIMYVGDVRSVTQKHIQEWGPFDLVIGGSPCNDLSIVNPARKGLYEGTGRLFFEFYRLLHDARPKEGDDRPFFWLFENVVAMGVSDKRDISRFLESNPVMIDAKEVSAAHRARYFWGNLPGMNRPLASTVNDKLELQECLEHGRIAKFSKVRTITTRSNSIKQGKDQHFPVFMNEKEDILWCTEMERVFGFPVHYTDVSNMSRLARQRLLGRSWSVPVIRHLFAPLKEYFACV

`NC(=O)NO` [Hydroxyurea, hydroxyurea] was tested, and the “Relative expression of β-globin mRNA” value [1, 3] was 1.124 and 0.7862 and 0.5724, the “Relative expression of γ-globin mRNA” value [1, 3] was 2.644 and 2.524 and 1.672 and the “HbF induction compared with RK-701” value [2] was “less effective in inducing HbF than RK-701”. For the same molecule, the “Percentage of HbF-expressing cells” value ([2]; day 11, 10 μM, listed as HU) was 32.8% and 45.2% and 37.4%, the “Percentage of HbF-expressing cells” value ([2]; day 11, 50 μM, listed as HU) was 63% and 65.2% and 61.5% and the “Cell viability in CD34+ cells” value (CD34+ cells; 10 μM) was 3.83 10*7 cells and 4.25 10*7 cells and 4.44 10*7 cells. The “Cell viability in CD34+ cells” value (CD34+ cells; 50 μM) was 1.8 10*7 cells and 1.47 10*7 cells and 1.48 10*7 cells, the cell viability (CD34+ cells) was “severe cytotoxicity” and the “BGLT3 expression in CD34+ cells treated with hydroxyurea” value (“BGLT3 expression in CD34+ cells treated” below) (BGLT3 RNA in CD34+ cells; DAY7, 10 μM) was 1.048 and 1.203 and 1.026. The “BGLT3 expression in CD34+ cells treated” value (BGLT3 RNA in CD34+ cells; DAY7, 50 μM) was 1.743 and 1.82 and 2.054, the “BGLT3 expression in CD34+ cells treated” value (BGLT3 RNA in CD34+ cells; DAY9, 10 μM) was 1.52 and 1.518 and 1.0769 and the “BGLT3 expression in CD34+ cells treated” value (BGLT3 RNA in CD34+ cells; DAY9, 50 μM) was 2.568 and 2.893 and 2.233. The BGLT3 expression (BGLT3 RNA in CD34+ cells) was “promoted BGLT3 expression”.

`Nc1ncnc2c1ncn2[C@@H]1O[C@H](CSCC[C@H](N)C(=O)O)[C@@H](O)[C@H]1O` [SAH, S-(5'-Adenosyl)-L-homocysteine, reference compound] was tested, and the IC50 (DNMT3b/3L; 1 μM SAM) was 0.05 µM, the IC50 (DNMT3b/3L; RK-701 in duplicate) was 0.0542 µM and the IC50 (SMYD1; SMYD1, 1 μM SAM) was 47.4 µM. For the same molecule, the IC50 (SMYD1; SMYD1, RK-701 in duplicate) was 47.4 µM, the IC50 (SUV39H2; SUV39H2, 1 μM SAM) was 20.2 µM and the IC50 (SUV39H2; SUV39H2, RK-701 in duplicate) was 20.2 µM. For the same molecule, the IC50 (SET7/9; SET7/9, 1 μM SAM) was 81.8 µM, the IC50 (SET7/9; SET7/9, RK-701 in duplicate) was 81.8 µM and the IC50 (DNMT3a; IC50, DNMT3a, 1 μM SAM) was 0.3 µM. It also gave an IC50 (DNMT3a; IC50, DNMT3a, RK-701 in duplicate) of 0.3 µM, an IC50 (NSD1; NSD1, 1 μM SAM) of 56.6 µM and an IC50 (NSD1; NSD1, RK-701 in duplicate) of 56.6 µM.

For `Cc1c(C(=O)NC(CCC2CC2)C(=O)Nc2ccc(C#N)cc2)[nH]c2c1C(=O)CC(C)(C)C2` (stereo not shown) [RK-701], the IC50 (DNMT3b/3L; 1 μM SAM) was > 100 µM, the IC50 (DNMT3b/3L; RK-701 in duplicate) was > 100 µM and the “γ-globin mRNA expression” value ([1]; primary human CD34+ hematopoietic cells) was “significantly increased”. The IC50 (SMYD1; SMYD1, 1 μM SAM) was 52.7 µM, the IC50 (SMYD1; SMYD1, RK-701 in duplicate) was 45 µM and 60.5 µM and the “Percentage of HbF-expressing cells” value ([2]; day 11, 0.01 μM) was 22.7% and 27% and 19%. The “Percentage of HbF-expressing cells” value ([2]; day 11, 0.03 μM) was 41.2% and 51.3% and 42.4%, the “Percentage of HbF-expressing cells” value ([2]; day 11, 0.1 μM) was 71.3% and 76.8% and 67.7% and the “Percentage of HbF-expressing cells” value ([2]; day 11, 0.3 μM) was 83.5% and 83.7% and 81.1%. The “Percentage of HbF-expressing cells” value ([2]; day 11, 1 μM) was 84.2% and 87.4% and 83.5%, the “Percentage of HbF-expressing cells” value ([2]; day 11, 3 μM) was 84.8% (2×) and 85.2% and the IC50 (SUV39H2; SUV39H2, 1 μM SAM) was > 100 µM. For the same molecule, the IC50 (SUV39H2; SUV39H2, RK-701 in duplicate) was > 100 µM, the “Cell viability in CD34+ cells” value (CD34+ cells; 0.01 μM) was 4.59 10*7 cells and 4.56 10*7 cells and 4.57 10*7 cells and the “Cell viability in CD34+ cells” value (CD34+ cells; 0.03 μM) was 4.39 10*7 cells and 4.41 10*7 cells and 4.97 10*7 cells. The “Cell viability in CD34+ cells” value (CD34+ cells; 0.1 μM) was 4.54 10*7 cells and 4.45 10*7 cells and 4.75 10*7 cells, the “Cell viability in CD34+ cells” value (CD34+ cells; 0.3 μM) was 4.11 10*7 cells and 4.64 10*7 cells and 4.5 10*7 cells and the “Cell viability in CD34+ cells” value (CD34+ cells; 1 μM) was 4.01 10*7 cells and 4.28 10*7 cells and 4.43 10*7 cells. For the same molecule, the “Cell viability in CD34+ cells” value (CD34+ cells; 3 μM) was 4.31 10*7 cells and 4.53 10*7 cells and 4.47 10*7 cells, the cell viability (CD34+ cells) was “without affecting cell viability” and the IC50 (SET7/9; SET7/9, 1 μM SAM) was > 100 µM. For the same molecule, the IC50 (SET7/9; SET7/9, RK-701 in duplicate) was > 100 µM, the IC50 (DNMT3a; DNMT3a, 1 μM SAM, read-out: IC50) was > 100 µM and the IC50 (DNMT3a; DNMT3a, RK-701 in duplicate, read-out: IC50) was > 100 µM. The BGLT3 expression (BGLT3 RNA in CD34+ cells) was “induced BGLT3 expression”, the IC50 (NSD1; NSD1, 1 μM SAM) was > 100 µM and the IC50 (NSD1; NSD1, RK-701 in duplicate) was > 100 µM.
